Results taken from patent US20100227401A1, “MEDIA AND PROCESSES FOR THE EX VIVO PRODUCTION OF MEGAKARYOCYTES FROM HUMAN CD34+ CELLS” (FOOD INDUSTRY RESEARCH AND DEVELOPMENT INSTITUTE, priority 2003, published 2010).

Columns and labels:
[1] = test system: serum-free expanded CD34^+ cells; test: Ex vivo Mk induction from serum-free expanded CD34+ cells, 1-week induction, TNC count and Mk count (CD41a+CD61+); assay type: cell-based, human; conditions: preliminary screening of serum substitutes (data not shown)
Experimental: Each experiment was repeated at least four times. […] (1978), Statistics for Experimenters: An Introduction to Design, Data Analysis, and Model Building, Wiley, New York). In addition, the statistical significance was determined by an F-test, and the significance of the regression coefficient was analyzed by a t-test. […] After cultivation for 1 week, the cells were collected and subjected to the TNC count as described above and a megakaryocyte count (Mk count) so as to evaluate the ex vivo megakaryocytopoietic effects of the tested serum substitutes and cytokines. The Mk count was conducted by labeling the collected cells with CD41a-FITC and CD61-PE and analyzed according to the operating procedure described in the following section, entitled “4. […] The incubation was terminated by washing three times with 1 mL FACS buffer. Optionally, the first antibody-labeled cells were further incubated with a second antibody conjugated with PE or FITC in the same manner. After washing with FACS buffer, the labeled cells were resuspended in 1 mL FACS buffer and analyzed on a FACSCalibur analyzer (Becton-Dickinson, NJ, USA). The data were analyzed by CellQuest software. A replicate sample incubated with FITC- or PE-conjugated mouse IgG1 was used as an isotype control for specificity. […] SF-Mk as established in Example 1, IMDM+10% FBS, IMDM+2% FBS, […]-VIVO 10, X-VIVO 15, X-VIVO 20,[…], DMEM, RPMI 1640, α-MEM, BME medium, […] medium, and Medium 199, respectively. IMDM+10% FBS, IMDM+2% FBS, […]-VIVO 10, X-VIVO 15, X-VIVO 20,[…], DMEM, RPMI 1640, α-MEM, BME medium, […] medium and Medium 199 were respectively supplemented with the cytokine cocktail (CC) as screened in Example 1. […] After 1-week induction, the Mk number of each group was calculated. […] IMDM supplemented with a serum substitute consisting of 4.9 g/L BSA, 2.72 μg/mL insulin, and 80 μg/mL transferrin (based on the applicants' previous study, unpublished data) and the reference cytokine cocktail as previously reported in Te-Wei Chen et al. (2009), supra; and • (3) FBS group: IMDM supplemented with 10% FBS and the reference cytokine cocktail.

[2] = test system: hematopoietic progenitor cells (HPCs); conditions: cited from earlier work
[3] = test system: CD34^+-selected cells; conditions: PMP 200 ng/mL; TPO 10 ng/mL, IL-3 10 ng/mL; cited from earlier work
[4] = mpIL added to growth factor cocktail

| Compound | effect on ex vivo megakaryocytopoiesis [1] | other results |
| --- | --- | --- |
| NC(=O)CC[C@H](N)C(=O)O [L-glutamine] | no effect |  |
| OCCS [Step 2-ME, 2-mercaptoethanol] | no effect |  |
| CC(=O)C(=O)[O-].[Na+] [sodium pyruvate] | no effect |  |
| insulin | significantly positive effects |  |
| mpIL: recombinant mpl ligand |  | Mk purity level [2, 4]: 80%; final yield of Mks [2, 4]: 4×10^5; cell number ([2]; mpIL alone): 1.5×10^5 cells |
| promegapoietin [PMP] |  | megakaryocytopoietic activity [3]: comparable to that achieved with TPO plus IL-3 |
| transferrin | significantly positive effects |  |
